Test results as given in ChEMBL document CHEMBL1212782, “Mutasynthesis of lincomycin derivatives with activity against drug-resistant staphylococci” (2010).
Converted amounts (≈) assume the structure as drawn.

These molecules were tested on Staphylococcus aureus (assay: Antimicrobial activity against Staphylococcus aureus ATCC 29213 incubated at 37 degC for 24 hrs by agar dilution method). Conditions: ATCC 29213, 24 h.

In order of falling MIC:
1. CCC[C@@H]1C[C@@H](C(=O)N[C@@H]([C@H]2O[C@H](SC)[C@H](O)[C@@H](O)[C@H]2O)[C@@H](C)O)N(C)C1 [LINCOMYCIN]  1 µg/mL (≈ 2.46 µM)
2. CCCCC[C@@H]1C[C@@H](C(=O)N[C@@H]([C@H]2O[C@H](SC)[C@H](O)[C@@H](O)[C@H]2O)[C@@H](C)O)N(C)C1  0.25 µg/mL (≈ 0.575 µM)
3. CCC[C@@H]1C[C@@H](C(=O)N[C@@H]([C@H]2O[C@H](SC)[C@H](O)[C@@H](O)[C@H]2O)[C@H](C)Cl)N(C)C1 [CLINDAMYCIN]  0.125 µg/mL (≈ 0.294 µM)

The molecules below were run on Staphylococcus aureus (assay: Antimicrobial activity against Staphylococcus aureus isolate CIP 107907 harboring vgaA gene incubated at 37 degC for 24 hrs by agar dilution method). Conditions: isolate CIP 107907, 24 h.

In order of rising MIC:
1. CCC[C@@H]1C[C@@H](C(=O)N[C@@H]([C@H]2O[C@H](SC)[C@H](O)[C@@H](O)[C@H]2O)[C@H](C)Cl)N(C)C1 [CLINDAMYCIN]  0.25 µg/mL (≈ 0.588 µM)
2. CCCCC[C@@H]1C[C@@H](C(=O)N[C@@H]([C@H]2O[C@H](SC)[C@H](O)[C@@H](O)[C@H]2O)[C@@H](C)O)N(C)C1  0.5 µg/mL (≈ 1.15 µM)
3. CCC[C@@H]1C[C@@H](C(=O)N[C@@H]([C@H]2O[C@H](SC)[C@H](O)[C@@H](O)[C@H]2O)[C@@H](C)O)N(C)C1 [LINCOMYCIN]  4 µg/mL (≈ 9.84 µM)

Each molecule was assayed on Staphylococcus epidermidis (assay: Antimicrobial activity against lincomycin resistant Staphylococcus epidermidis isolate 102OL harboring lnuA gene incubated at 37 degC for 24 hrs by agar dilution method). Conditions: not given.

In order of rising MIC:
1. CCC[C@@H]1C[C@@H](C(=O)N[C@@H]([C@H]2O[C@H](SC)[C@H](O)[C@@H](O)[C@H]2O)[C@H](C)Cl)N(C)C1 [CLINDAMYCIN]  1 µg/mL (≈ 2.35 µM)
2. CCCCC[C@@H]1C[C@@H](C(=O)N[C@@H]([C@H]2O[C@H](SC)[C@H](O)[C@@H](O)[C@H]2O)[C@@H](C)O)N(C)C1  2 µg/mL (≈ 4.6 µM)
3. CCC[C@@H]1C[C@@H](C(=O)N[C@@H]([C@H]2O[C@H](SC)[C@H](O)[C@@H](O)[C@H]2O)[C@@H](C)O)N(C)C1 [LINCOMYCIN]  64 µg/mL (≈ 157 µM)

Each molecule was assayed on Staphylococcus haemolyticus (assay: Antimicrobial activity against lincomycin resistant Staphylococcus haemolyticus isolate 123PL harboring lnuA gene incubated at 37 degC for 24 hrs by agar dilution method). Conditions: not given.

In order of falling MIC:
1. CCC[C@@H]1C[C@@H](C(=O)N[C@@H]([C@H]2O[C@H](SC)[C@H](O)[C@@H](O)[C@H]2O)[C@@H](C)O)N(C)C1 [LINCOMYCIN]  128 µg/mL (≈ 315 µM)
2. CCCCC[C@@H]1C[C@@H](C(=O)N[C@@H]([C@H]2O[C@H](SC)[C@H](O)[C@@H](O)[C@H]2O)[C@@H](C)O)N(C)C1  8 µg/mL (≈ 18.4 µM)
3. CCC[C@@H]1C[C@@H](C(=O)N[C@@H]([C@H]2O[C@H](SC)[C@H](O)[C@@H](O)[C@H]2O)[C@H](C)Cl)N(C)C1 [CLINDAMYCIN]  2 µg/mL (≈ 4.71 µM)

What follows are molecules tested on Staphylococcus epidermidis (assay: Antimicrobial activity against erythromycin resistant Staphylococcus epidermidis isolate 129OV harboring msrA gene incubated at 37 degC for 24 hrs by agar dilution method). Conditions: not given.

In order of rising MIC:
1. CCCCC[C@@H]1C[C@@H](C(=O)N[C@@H]([C@H]2O[C@H](SC)[C@H](O)[C@@H](O)[C@H]2O)[C@@H](C)O)N(C)C1  0.25 µg/mL (≈ 0.575 µM)
2. CCC[C@@H]1C[C@@H](C(=O)N[C@@H]([C@H]2O[C@H](SC)[C@H](O)[C@@H](O)[C@H]2O)[C@H](C)Cl)N(C)C1 [CLINDAMYCIN]  0.25 µg/mL (≈ 0.588 µM)
3. CCC[C@@H]1C[C@@H](C(=O)N[C@@H]([C@H]2O[C@H](SC)[C@H](O)[C@@H](O)[C@H]2O)[C@@H](C)O)N(C)C1 [LINCOMYCIN]  1 µg/mL (≈ 2.46 µM)

Each molecule was assayed on Staphylococcus haemolyticus (assay: Antimicrobial activity against erythromycin resistant Staphylococcus haemolyticus isolate 202BB harboring msrA gene incubated at 37 degC for 24 hrs by agar dilution method). Conditions: not given.

In order of falling MIC:
1. CCC[C@@H]1C[C@@H](C(=O)N[C@@H]([C@H]2O[C@H](SC)[C@H](O)[C@@H](O)[C@H]2O)[C@@H](C)O)N(C)C1 [LINCOMYCIN]  1 µg/mL (≈ 2.46 µM)
2. CCCCC[C@@H]1C[C@@H](C(=O)N[C@@H]([C@H]2O[C@H](SC)[C@H](O)[C@@H](O)[C@H]2O)[C@@H](C)O)N(C)C1  0.25 µg/mL (≈ 0.575 µM)
3. CCC[C@@H]1C[C@@H](C(=O)N[C@@H]([C@H]2O[C@H](SC)[C@H](O)[C@@H](O)[C@H]2O)[C@H](C)Cl)N(C)C1 [CLINDAMYCIN]  0.125 µg/mL (≈ 0.294 µM)

Each molecule was assayed on Staphylococcus haemolyticus (assay: Antimicrobial activity against lincomycin, clindamycin resistant Staphylococcus haemolyticus isolate 29OL harboring vgaALC gene incubated at 37 degC for 24 hrs by agar dilution method). Conditions: not given.

In order of rising MIC:
1. CCC[C@@H]1C[C@@H](C(=O)N[C@@H]([C@H]2O[C@H](SC)[C@H](O)[C@@H](O)[C@H]2O)[C@H](C)Cl)N(C)C1 [CLINDAMYCIN]  16 µg/mL (≈ 37.6 µM)
2. CCCCC[C@@H]1C[C@@H](C(=O)N[C@@H]([C@H]2O[C@H](SC)[C@H](O)[C@@H](O)[C@H]2O)[C@@H](C)O)N(C)C1  32 µg/mL (≈ 73.6 µM)
3. CCC[C@@H]1C[C@@H](C(=O)N[C@@H]([C@H]2O[C@H](SC)[C@H](O)[C@@H](O)[C@H]2O)[C@@H](C)O)N(C)C1 [LINCOMYCIN]  64 µg/mL (≈ 157 µM)

These molecules were tested on Staphylococcus haemolyticus (assay: Antimicrobial activity against erythromycin, lincomycin resistant Staphylococcus haemolyticus isolate 113OL harboring msrA lnuA gene incubated at 37 degC for 24 hrs by agar dilution method). Conditions: not given.

In order of rising MIC:
1. CCC[C@@H]1C[C@@H](C(=O)N[C@@H]([C@H]2O[C@H](SC)[C@H](O)[C@@H](O)[C@H]2O)[C@H](C)Cl)N(C)C1 [CLINDAMYCIN]  1 µg/mL (≈ 2.35 µM)
2. CCCCC[C@@H]1C[C@@H](C(=O)N[C@@H]([C@H]2O[C@H](SC)[C@H](O)[C@@H](O)[C@H]2O)[C@@H](C)O)N(C)C1  8 µg/mL (≈ 18.4 µM)
3. CCC[C@@H]1C[C@@H](C(=O)N[C@@H]([C@H]2O[C@H](SC)[C@H](O)[C@@H](O)[C@H]2O)[C@@H](C)O)N(C)C1 [LINCOMYCIN]  128 µg/mL (≈ 315 µM)

These molecules were tested on Staphylococcus epidermidis (assay: Antimicrobial activity against erythromycin, lincomycin, clindamycin resistant Staphylococcus epidermidis isolate 44KR harboring ermC gene incubated at 37 degC for 24 hrs by agar dilution method). Conditions: not given.

`CCCCC[C@@H]1C[C@@H](C(=O)N[C@@H]([C@H]2O[C@H](SC)[C@H](O)[C@@H](O)[C@H]2O)[C@@H](C)O)N(C)C1` and `CCC[C@@H]1C[C@@H](C(=O)N[C@@H]([C@H]2O[C@H](SC)[C@H](O)[C@@H](O)[C@H]2O)[C@@H](C)O)N(C)C1` [LINCOMYCIN] are the same in MIC: 64 µg/mL (≈ 147 µM) for the first, 64 µg/mL (≈ 157 µM) for the second.

Work on `CCC[C@@H]1C[C@@H](C(=O)N[C@@H]([C@H]2O[C@H](SC)[C@H](O)[C@@H](O)[C@H]2O)[C@H](C)Cl)N(C)C1` [CLINDAMYCIN] yielded an MIC greater than 16 µg/mL.

Each molecule was assayed on Staphylococcus haemolyticus (assay: Antimicrobial activity against erythromycin, lincomycin, clindamycin resistant Staphylococcus haemolyticus isolate 134PL harboring ermC gene incubated at 37 degC for 24 hrs by agar dilution method). Conditions: not given.

`CCCCC[C@@H]1C[C@@H](C(=O)N[C@@H]([C@H]2O[C@H](SC)[C@H](O)[C@@H](O)[C@H]2O)[C@@H](C)O)N(C)C1` and `CCC[C@@H]1C[C@@H](C(=O)N[C@@H]([C@H]2O[C@H](SC)[C@H](O)[C@@H](O)[C@H]2O)[C@@H](C)O)N(C)C1` [LINCOMYCIN] are the same in MIC: 32 µg/mL (≈ 73.6 µM) for the first, 32 µg/mL (≈ 78.7 µM) for the second.

`CCC[C@@H]1C[C@@H](C(=O)N[C@@H]([C@H]2O[C@H](SC)[C@H](O)[C@@H](O)[C@H]2O)[C@H](C)Cl)N(C)C1` [CLINDAMYCIN] gave an MIC greater than 16 µg/mL.

These molecules were tested on Staphylococcus haemolyticus (assay: Antimicrobial activity against erythromycin, lincomycin, clindamycin resistant Staphylococcus haemolyticus isolate 65OL harboring ermC vgaALC gene incubated at 37 degC for 24 hrs by agar dilution method). Conditions: not given.

In order of falling MIC:
1. CCCCC[C@@H]1C[C@@H](C(=O)N[C@@H]([C@H]2O[C@H](SC)[C@H](O)[C@@H](O)[C@H]2O)[C@@H](C)O)N(C)C1  128 µg/mL (≈ 295 µM)
2. CCC[C@@H]1C[C@@H](C(=O)N[C@@H]([C@H]2O[C@H](SC)[C@H](O)[C@@H](O)[C@H]2O)[C@@H](C)O)N(C)C1 [LINCOMYCIN]  128 µg/mL (≈ 315 µM)
3. CCC[C@@H]1C[C@@H](C(=O)N[C@@H]([C@H]2O[C@H](SC)[C@H](O)[C@@H](O)[C@H]2O)[C@H](C)Cl)N(C)C1 [CLINDAMYCIN]  4 µg/mL (≈ 9.41 µM)

The molecules below were run on Staphylococcus epidermidis (assay: Antimicrobial activity against erythromycin, lincomycin, clindamycin resistant Staphylococcus epidermidis isolate 1036UL harboring ermC vgaALC gene incubated at 37 degC for 24 hrs by agar dilution method). Conditions: not given.

First: CCCCC[C@@H]1C[C@@H](C(=O)N[C@@H]([C@H]2O[C@H](SC)[C@H](O)[C@@H](O)[C@H]2O)[C@@H](C)O)N(C)C1
Second: CCC[C@@H]1C[C@@H](C(=O)N[C@@H]([C@H]2O[C@H](SC)[C@H](O)[C@@H](O)[C@H]2O)[C@@H](C)O)N(C)C1 [LINCOMYCIN]
The MIC of the first is lower: 64 µg/mL (≈ 147 µM) for the first, greater than 256 µg/mL for the second.

`CCC[C@@H]1C[C@@H](C(=O)N[C@@H]([C@H]2O[C@H](SC)[C@H](O)[C@@H](O)[C@H]2O)[C@H](C)Cl)N(C)C1` [CLINDAMYCIN] was tested, and the MIC was greater than 16 µg/mL.

The molecules below were run on Staphylococcus epidermidis (assay: Antimicrobial activity against erythromycin, lincomycin, clindamycin resistant Staphylococcus epidermidis isolate 32OL harboring msrA lnuA vgaALC gene incubated at 37 degC for 24 hrs by agar dilution method). Conditions: not given.

First: CCCCC[C@@H]1C[C@@H](C(=O)N[C@@H]([C@H]2O[C@H](SC)[C@H](O)[C@@H](O)[C@H]2O)[C@@H](C)O)N(C)C1
Second: CCC[C@@H]1C[C@@H](C(=O)N[C@@H]([C@H]2O[C@H](SC)[C@H](O)[C@@H](O)[C@H]2O)[C@@H](C)O)N(C)C1 [LINCOMYCIN]
The MIC of the first is lower: 64 µg/mL (≈ 147 µM) for the first, greater than 256 µg/mL for the second.

`CCC[C@@H]1C[C@@H](C(=O)N[C@@H]([C@H]2O[C@H](SC)[C@H](O)[C@@H](O)[C@H]2O)[C@H](C)Cl)N(C)C1` [CLINDAMYCIN] showed an MIC of 16 µg/mL (≈ 37.6 µM).

The molecules below were run on Staphylococcus epidermidis (assay: Antimicrobial activity against erythromycin, inducible lincomycin, inducible clindamycin resistant Staphylococcus epidermidis isolate 32PL harboring ermC gene incubated at 37 degC for 24 hrs by agar dilution method). Conditions: not given.

In order of falling MIC:
1. CCC[C@@H]1C[C@@H](C(=O)N[C@@H]([C@H]2O[C@H](SC)[C@H](O)[C@@H](O)[C@H]2O)[C@@H](C)O)N(C)C1 [LINCOMYCIN]  1 µg/mL (≈ 2.46 µM)
2. CCCCC[C@@H]1C[C@@H](C(=O)N[C@@H]([C@H]2O[C@H](SC)[C@H](O)[C@@H](O)[C@H]2O)[C@@H](C)O)N(C)C1  0.25 µg/mL (≈ 0.575 µM)
3. CCC[C@@H]1C[C@@H](C(=O)N[C@@H]([C@H]2O[C@H](SC)[C@H](O)[C@@H](O)[C@H]2O)[C@H](C)Cl)N(C)C1 [CLINDAMYCIN]  0.125 µg/mL (≈ 0.294 µM)

The molecules below were run on Staphylococcus haemolyticus (assay: Antimicrobial activity against erythromycin, inducible lincomycin, inducible clindamycin resistant Staphylococcus haemolyticus isolate 31UL harboring ermC gene incubated at 37 degC for 24 hrs by agar dilution method). Conditions: not given.

In order of rising MIC:
1. CCCCC[C@@H]1C[C@@H](C(=O)N[C@@H]([C@H]2O[C@H](SC)[C@H](O)[C@@H](O)[C@H]2O)[C@@H](C)O)N(C)C1  0.5 µg/mL (≈ 1.15 µM)
2. CCC[C@@H]1C[C@@H](C(=O)N[C@@H]([C@H]2O[C@H](SC)[C@H](O)[C@@H](O)[C@H]2O)[C@H](C)Cl)N(C)C1 [CLINDAMYCIN]  0.5 µg/mL (≈ 1.18 µM)
3. CCC[C@@H]1C[C@@H](C(=O)N[C@@H]([C@H]2O[C@H](SC)[C@H](O)[C@@H](O)[C@H]2O)[C@@H](C)O)N(C)C1 [LINCOMYCIN]  1 µg/mL (≈ 2.46 µM)
